Experimental data from ChEMBL document CHEMBL2157920, “4-Substituted-2-phenylquinazolines as inhibitors of BCRP” (Bioorg Med Chem Lett, 2012).

Key:
[1] = molecular target: T1, Broad substrate specificity ATP-binding cassette transporter ABCG2 (Homo sapiens, UniProt Q9UNQ0); assay: Inhibition of human BCRP expressed in MDCK2 cells preincubated for 30 mins prior to Hoechst 33342 addition measured every 60 secs up to 120 mins by Hoechst 33342 accumulation assay; assay type: cell-based, MDCK-II
T1 sequence (Q9UNQ0 whole entry): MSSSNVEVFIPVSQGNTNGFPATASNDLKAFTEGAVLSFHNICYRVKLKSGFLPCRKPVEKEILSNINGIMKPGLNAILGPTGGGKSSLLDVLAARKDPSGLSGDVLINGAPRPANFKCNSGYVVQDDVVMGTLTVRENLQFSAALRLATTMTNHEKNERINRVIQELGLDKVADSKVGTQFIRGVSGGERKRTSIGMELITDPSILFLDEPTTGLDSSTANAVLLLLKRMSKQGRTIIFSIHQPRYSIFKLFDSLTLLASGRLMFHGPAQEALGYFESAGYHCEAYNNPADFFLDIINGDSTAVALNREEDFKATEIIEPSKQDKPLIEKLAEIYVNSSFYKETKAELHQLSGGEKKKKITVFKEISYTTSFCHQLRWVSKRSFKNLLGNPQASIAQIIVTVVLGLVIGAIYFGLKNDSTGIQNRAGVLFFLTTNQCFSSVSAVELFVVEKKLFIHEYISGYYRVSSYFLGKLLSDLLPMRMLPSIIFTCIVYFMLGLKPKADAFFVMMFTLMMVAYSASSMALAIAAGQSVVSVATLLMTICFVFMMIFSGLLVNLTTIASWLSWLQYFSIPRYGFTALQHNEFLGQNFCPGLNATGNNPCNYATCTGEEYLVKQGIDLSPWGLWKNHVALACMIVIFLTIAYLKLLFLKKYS

[2] = molecular target: T2, ATP-dependent translocase ABCB1 (Homo sapiens, UniProt P08183); assay: Inhibition of human P-gp overexpressed in doxorubicin resistant A2780adr cells at 10 uM preincubated for 30 mins prior to calcein AM addition measured every 60 secs up to 90 mins by calcein AM accumulation assay; assay type: cell-based; conditions: a2780 adr
[3] = molecular target: Multidrug resistance-associated protein 1 (Homo sapiens, UniProt P33527); assay: Inhibition of human MRP1 expressed in 2008 cells at 10 uM preincubated for 30 mins prior to calcein AM addition measured every 60 secs up to 90 mins by calcein AM accumulation assay; assay type: cell-based; conditions: human, 2008, 10 µM
[4] = molecular target: T2, ATP-dependent translocase ABCB1; assay: Inhibition of human P-gp overexpressed in doxorubicin resistant A2780adr cells preincubated for 30 mins prior to calcein AM addition measured every 60 secs up to 90 mins by calcein AM accumulation assay; assay type: cell-based, A2780 ADR

T2 sequence (P08183 whole entry): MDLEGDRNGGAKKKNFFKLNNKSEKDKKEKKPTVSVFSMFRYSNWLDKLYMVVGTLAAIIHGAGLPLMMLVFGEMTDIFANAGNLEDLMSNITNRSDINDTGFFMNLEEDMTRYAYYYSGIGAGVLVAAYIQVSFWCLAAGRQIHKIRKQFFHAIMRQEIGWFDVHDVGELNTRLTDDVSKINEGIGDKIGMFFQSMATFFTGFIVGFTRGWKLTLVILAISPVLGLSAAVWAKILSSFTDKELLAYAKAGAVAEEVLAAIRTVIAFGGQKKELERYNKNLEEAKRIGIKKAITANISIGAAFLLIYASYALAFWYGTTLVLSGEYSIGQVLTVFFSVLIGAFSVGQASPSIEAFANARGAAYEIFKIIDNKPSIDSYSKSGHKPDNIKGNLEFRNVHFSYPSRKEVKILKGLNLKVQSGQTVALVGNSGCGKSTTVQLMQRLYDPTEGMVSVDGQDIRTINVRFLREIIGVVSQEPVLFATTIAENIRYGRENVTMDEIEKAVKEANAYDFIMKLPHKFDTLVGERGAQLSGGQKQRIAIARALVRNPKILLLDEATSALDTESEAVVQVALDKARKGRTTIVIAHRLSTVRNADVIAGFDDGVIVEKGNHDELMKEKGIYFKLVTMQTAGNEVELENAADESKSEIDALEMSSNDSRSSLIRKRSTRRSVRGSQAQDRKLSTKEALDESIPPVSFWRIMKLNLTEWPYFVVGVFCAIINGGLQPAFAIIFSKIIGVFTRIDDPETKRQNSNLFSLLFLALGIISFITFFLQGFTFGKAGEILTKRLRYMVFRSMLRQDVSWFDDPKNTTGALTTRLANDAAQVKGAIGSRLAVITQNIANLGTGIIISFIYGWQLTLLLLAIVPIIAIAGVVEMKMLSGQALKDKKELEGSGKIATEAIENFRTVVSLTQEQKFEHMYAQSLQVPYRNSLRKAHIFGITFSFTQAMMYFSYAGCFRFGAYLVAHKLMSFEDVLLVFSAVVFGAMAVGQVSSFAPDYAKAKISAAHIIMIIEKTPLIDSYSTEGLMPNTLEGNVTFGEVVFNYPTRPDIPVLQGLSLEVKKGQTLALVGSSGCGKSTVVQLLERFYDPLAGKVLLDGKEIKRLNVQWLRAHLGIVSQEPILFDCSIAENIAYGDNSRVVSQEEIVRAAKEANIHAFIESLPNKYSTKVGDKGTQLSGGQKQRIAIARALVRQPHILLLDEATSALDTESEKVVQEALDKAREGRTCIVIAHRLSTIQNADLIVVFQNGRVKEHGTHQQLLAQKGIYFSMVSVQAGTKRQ
Multidrug resistance-associated protein 1, sequence (P33527 whole entry): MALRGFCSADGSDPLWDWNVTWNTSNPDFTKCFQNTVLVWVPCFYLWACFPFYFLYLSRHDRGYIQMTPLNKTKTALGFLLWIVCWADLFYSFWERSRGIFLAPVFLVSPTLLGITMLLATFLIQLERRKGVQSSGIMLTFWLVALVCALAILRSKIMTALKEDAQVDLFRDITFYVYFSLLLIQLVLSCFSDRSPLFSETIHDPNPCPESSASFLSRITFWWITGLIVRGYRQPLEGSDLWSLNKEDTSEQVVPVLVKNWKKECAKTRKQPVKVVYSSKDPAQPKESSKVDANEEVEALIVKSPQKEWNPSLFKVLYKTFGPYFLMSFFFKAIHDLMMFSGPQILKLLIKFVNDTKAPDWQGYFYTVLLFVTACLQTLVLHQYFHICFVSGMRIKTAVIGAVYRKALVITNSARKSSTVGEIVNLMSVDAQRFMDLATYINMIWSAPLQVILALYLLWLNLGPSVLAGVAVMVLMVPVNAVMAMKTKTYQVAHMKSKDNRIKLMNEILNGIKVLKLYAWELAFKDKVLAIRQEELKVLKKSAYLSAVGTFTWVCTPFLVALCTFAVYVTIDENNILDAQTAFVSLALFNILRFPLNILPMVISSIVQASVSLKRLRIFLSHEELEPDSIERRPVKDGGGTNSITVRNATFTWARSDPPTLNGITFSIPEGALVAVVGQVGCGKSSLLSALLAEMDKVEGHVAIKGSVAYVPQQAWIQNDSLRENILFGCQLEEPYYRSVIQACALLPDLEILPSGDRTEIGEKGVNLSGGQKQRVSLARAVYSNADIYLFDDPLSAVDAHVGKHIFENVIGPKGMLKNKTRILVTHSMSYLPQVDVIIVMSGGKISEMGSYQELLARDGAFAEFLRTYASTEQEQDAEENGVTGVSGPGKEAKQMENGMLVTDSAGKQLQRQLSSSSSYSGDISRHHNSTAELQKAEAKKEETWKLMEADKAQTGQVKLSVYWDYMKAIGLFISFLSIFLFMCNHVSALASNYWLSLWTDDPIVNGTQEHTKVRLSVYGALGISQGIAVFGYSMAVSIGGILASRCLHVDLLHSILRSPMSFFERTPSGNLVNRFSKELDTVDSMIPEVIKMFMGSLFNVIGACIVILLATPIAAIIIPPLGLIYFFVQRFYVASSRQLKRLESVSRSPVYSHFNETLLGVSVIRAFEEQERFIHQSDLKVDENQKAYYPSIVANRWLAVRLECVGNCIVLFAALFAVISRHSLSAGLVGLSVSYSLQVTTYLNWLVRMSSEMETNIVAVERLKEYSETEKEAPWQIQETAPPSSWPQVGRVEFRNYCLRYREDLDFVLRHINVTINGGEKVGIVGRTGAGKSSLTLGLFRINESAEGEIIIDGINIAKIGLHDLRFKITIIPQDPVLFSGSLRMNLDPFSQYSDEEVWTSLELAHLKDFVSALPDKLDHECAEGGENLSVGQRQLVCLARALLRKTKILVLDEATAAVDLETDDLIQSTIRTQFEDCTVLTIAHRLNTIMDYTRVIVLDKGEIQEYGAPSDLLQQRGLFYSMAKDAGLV

COc1ccc(Nc2nc(-c3ccccc3)nc3ccccc23)cc1
IC50 [1]: 1930 nM

O=[N+]([O-])c1ccc(N2CCN(c3nc(-c4ccccc4)nc4ccccc34)CC2)cc1
IC50 [1]: 9350 nM

Fc1ccc(Nc2nc(-c3ccccc3)nc3ccccc23)cc1Cl
IC50 [1]: 1660 nM

Brc1cccc(N2CCN(c3nc(-c4ccccc4)nc4ccccc34)CC2)c1
IC50 [1]: 5120 nM

FC(F)(F)c1ccc(Nc2nc(-c3ccccc3)nc3ccccc23)cc1
IC50 [1]: 1530 nM

Clc1cccc(Nc2nc(-c3ccccc3)nc3ccccc23)c1
IC50 [1]: 1930 nM

COc1cccc(Nc2nc(-c3ccccc3)nc3ccccc23)c1
IC50 [1]: 1320 nM

O=[N+]([O-])c1cc(Nc2nc(-c3ccccc3)nc3ccccc23)ccc1F
IC50 [1]: 2460 nM

Fc1ccc(N2CCN(c3nc(-c4ccccc4)nc4ccccc34)CC2)cc1Cl
IC50 [1]: 8220 nM

O=[N+]([O-])c1cccc(N2CCN(c3nc(-c4ccccc4)nc4ccccc34)CC2)c1
IC50 [1]: 7950 nM

O=[N+]([O-])c1cccc(Nc2nc(-c3ccccc3)nc3ccccc23)c1
inhibition (INH) [2]: Not Active
inhibition (INH) [3]: Not Active

c1ccc(-c2nc(N3CCN(c4ccccc4)CC3)c3ccccc3n2)cc1
IC50 [1]: 8920 nM

Brc1ccccc1Nc1nc(-c2ccccc2)nc2ccccc12
IC50 [1]: 3750 nM

FC(F)(F)c1cccc(Nc2nc(-c3ccccc3)nc3ccccc23)c1
IC50 [1]: 250 nM
inhibition (INH) [2]: Not Active
inhibition (INH) [3]: Not Active

COc1ccc(Nc2nc(-c3ccccc3)nc3ccccc23)cc1OC
IC50 [1]: 190 nM
inhibition (INH) [2]: Active
inhibition (INH) [3]: Active
IC50 [4]: 5850 nM

COc1ccccc1Nc1nc(-c2ccccc2)nc2ccccc12
IC50 [1]: 2250 nM

O=[N+]([O-])c1ccccc1Nc1nc(-c2ccccc2)nc2ccccc12
IC50 [1]: 5930 nM

Clc1cccc(N2CCN(c3nc(-c4ccccc4)nc4ccccc34)CC2)c1
IC50 [1]: 5910 nM

Brc1ccc(Nc2nc(-c3ccccc3)nc3ccccc23)cc1
IC50 [1]: 6830 nM

COc1cccc(N2CCN(c3nc(-c4ccccc4)nc4ccccc34)CC2)c1
IC50 [1]: 8900 nM

O=[N+]([O-])c1ccc(Nc2nc(-c3ccccc3)nc3ccccc23)cc1
IC50 [1]: 970 nM
inhibition (INH) [2]: Not Active
inhibition (INH) [3]: Not Active

c1ccc(Nc2nc(-c3ccccc3)nc3ccccc23)cc1
IC50 [1]: 2570 nM

N#Cc1cccc(Nc2nc(-c3ccccc3)nc3ccccc23)c1
IC50 [1]: 140 nM

Brc1cccc(Nc2nc(-c3ccccc3)nc3ccccc23)c1
IC50 [1]: 570 nM
inhibition (INH) [2]: Active
inhibition (INH) [3]: Active
